Reference: patent US6569881B1, “Substituted benzimidazole, the production thereof and the use thereof as means against parasitic protozoa” (Bayer Aktiengesellschaft, priority 1999, dated 2003)

Tests used:
Type in all cases: in vivo, chicken chicks
[1] = tested on: Eimeria acervulina, Eimeria maxima and Eimeria tenella; experiment: Cage experiments coccidiosis/chicks, mixed experimental infection; details: for dropping scores / lesion score: grade 0 to 6
Method: (§1) The efficacy of the compounds according to the invention can be confirmed, for example, in cage experiments using the following experimental arrangement, in which the animals are treated with the respective individual components and with the mixtures of the individual components.
(§2) An active compound-containing feed is prepared in such a way that the required amount of active compound is thoroughly mixed with a nutritionally balanced animal feed, e.g. with the chick feed indicated below.
(§3) 8 to 12 day-old male chicken chicks raised under coccidea-free conditions (e.g. LSL Brinkschulte/Senden) receive the compounds according to the invention (test substances) from 3 days before (day -3) the infection (=a.i.) until 8 (9) days after the infection (=p.i.) with the feed in the concentration indicated in ppm. Three animals are kept in each cage. Per dose, one to a number of groups of this type are employed. Infection is carried out by means of a stomach tube directly into the crop using approximately 100,000 sporulated oocysts of Eimeria acervulina and with in each case approximately 30,000 oocysts of E. maxima and 40,000 sporulated oocysts of E. tenella. These are highly virulent strains. The exact infectious dose is adjusted such that if possible one of three experimentally infected untreated chicks dies due to infection. For the assessment of the efficacy, the following criteria are taken into consideration: weight increase from the start of the experiment to the end of the experiment, death rate due to infection, macroscopic assessment of the faeces with respect to diarrhoea and excretion of blood on days 5 and 7 p.i. (grade 0 to 6), macroscopic grade of the intestinal mucous membrane, in particular of the cecums (grade 0 to 6) and the oocyst excretion and also the proportion (in %) of the oocysts sporulating within 24 hours. The number of oocysts in the faeces was determined with the aid of the McMaster counting chamber (see Engelbrecht and coworkers “Parasitologische Arbeitsmethoden in Medizin und Veterinärmedizin, [Parasitological working methods in medicine and veterinary medicine] Akademie-Verlag, Berlin (1965)). The individual findings are related to the untreated noninfected control groups and an overall grade is calculated (cf. A. Haberkorn (1986), pp. 263 to 270 in Research in Avian Coccidiosis ed L. R. McDougald, L. P. Joyner, P. L. Long Proceedings of the Georgia Coccidiosis Conference Nov, 18-20, 1985 Athens/Ga. USA).
In the column “ppm”, the concentration of the active compound employed in the feed is indicated in ppm.
In the column “mortality”, the percentage of the animals which have died is indicated under % and the number of the animals which have died/animals employed in the experiment is indicated under n.
In the column “weight % of not inf. control”, the ratio of the weight of the treated animals to the weight of the noninfected control group is indicated.
(§4) In the columns “dropping scores”, “lesion score” and “oocyst control”, individual details of the action are given.
In the column “% efficacy”, the overall rating is assessed; 0% means no action, 100% means complete action.

Eimeria acervulina = experiment: Cage experiments coccidiosis/chicks, Eimeria acervulina part of the mixed infection; details: for Efficacy against Eimeria acervulina (grade): first symbol of cell; as to Efficacy against Eimeria acervulina (grade): key: 2 = complete action; 1 = weak action; 0 = inactive; D = death
Method: as §1, §2, §3, §4

Eimeria maxima = experiment: Cage experiments coccidiosis/chicks, Eimeria maxima part of the mixed infection; details: for Efficacy against Eimeria maxima (grade): second symbol of cell; as to Efficacy against Eimeria maxima (grade): key: 2 = complete action; 1 = weak action; 0 = inactive; D = death
Method: as §1, §2, §3, §4

Eimeria tenella = experiment: Cage experiments coccidiosis/chicks, Eimeria tenella part of the mixed infection; details: for Efficacy against Eimeria tenella (grade): third symbol of cell; as to Efficacy against Eimeria tenella (grade): key: 2 = complete action; 1 = weak action; 0 = inactive; D = death
Method: as §1, §2, §3, §4

Compound | % efficacy tot. ([1]; 5 ppm in feed) [%] | mortality % ([1]; 5 ppm in feed) [%] | mortality n (died/employed) ([1]; 5 ppm in feed) | oocyst in % of inf. control tot. ([1]; 5 ppm in feed) [%] | weight % of not inf. control ([1]; 5 ppm in feed) [%] | dropping scores ([1]; 5 ppm in feed) | lesion score ([1]; 5 ppm in feed) | % efficacy tot. ([1]; 10 ppm in feed) [%] | mortality % ([1]; 10 ppm in feed) [%] | mortality n (died/employed) ([1]; 10 ppm in feed) | oocyst in % of inf. control tot. ([1]; 10 ppm in feed) [%] | weight % of not inf. control ([1]; 10 ppm in feed) [%] | dropping scores ([1]; 10 ppm in feed) | lesion score ([1]; 10 ppm in feed) | mortality % ([1]; 25 ppm in feed) [%] | mortality n (died/employed) ([1]; 25 ppm in feed) | dropping scores ([1]; 25 ppm in feed) | oocyst in % of inf. control ac. (Eimeria acervulina; 5 ppm in feed) [%] | oocyst in % of inf. control ac. (Eimeria acervulina; 10 ppm in feed) [%] | Efficacy against Eimeria acervulina (grade) (Eimeria acervulina; Dose 5 ppm) | further results
Cc1oc(=O)oc1Cn1c(C(F)(F)F)nc2cc(Cl)c(C(F)(F)F)cc21 [Example 18] | 7 | 0 | 0/3 | >100 | 33 | 6 | 6 | 5 | 0 | 0/3 | >100 | 30 | 6 | 6 | 0 | 0/3 | 1 | >100 | >100 | 0 | % efficacy tot. ([1]; 25 ppm in feed): 75%; oocyst in % of inf. control tot. ([1]; 25 ppm in feed): 1%; weight % of not inf. control ([1]; 25 ppm in feed): 82%; lesion score ([1]; 25 ppm in feed): 3; oocyst in % of inf. control ac. (Eimeria acervulina; 25 ppm in feed): 0%; Efficacy against Eimeria acervulina (grade) (Eimeria acervulina; Dose 10 ppm): 0; Efficacy against Eimeria acervulina (grade) (Eimeria acervulina; Dose 25 ppm): 2; oocyst in % of inf. control max. (Eimeria maxima; 5 ppm in feed): >100%; oocyst in % of inf. control max. (Eimeria maxima; 10 ppm in feed): 0%; oocyst in % of inf. control max. (Eimeria maxima; 25 ppm in feed): 20%; Efficacy against Eimeria maxima (grade) (Eimeria maxima; Dose 5 ppm): 0; Efficacy against Eimeria maxima (grade) (Eimeria maxima; Dose 10 ppm): 0; Efficacy against Eimeria maxima (grade) (Eimeria maxima; Dose 25 ppm): 1; oocyst in % of inf. control ten. (Eimeria tenella; 5 ppm in feed): >100%; oocyst in % of inf. control ten. (Eimeria tenella; 10 ppm in feed): >100%; oocyst in % of inf. control ten. (Eimeria tenella; 25 ppm in feed): 1%; Efficacy against Eimeria tenella (grade) (Eimeria tenella; Dose 5 ppm): 0; Efficacy against Eimeria tenella (grade) (Eimeria tenella; Dose 10 ppm): 0; Efficacy against Eimeria tenella (grade) (Eimeria tenella; Dose 25 ppm): 2
Cc1oc(=O)oc1Cn1c(C(F)(F)F)nc2cc(C(F)(F)F)c(Cl)cc21 [Example 19] | 7 | 0 | 0/3 | >100 | 52 | 4 | 6 | 66 | 0 | 0/3 | 5 | 75 | 3 | 4 | 0 | 0/3 | 6 | >100 | 5 | 0 | % efficacy tot. ([1]; 25 ppm in feed): 7%; oocyst in % of inf. control tot. ([1]; 25 ppm in feed): >100%; weight % of not inf. control ([1]; 25 ppm in feed): 56%; lesion score ([1]; 25 ppm in feed): 6; oocyst in % of inf. control ac. (Eimeria acervulina; 25 ppm in feed): >100%; Efficacy against Eimeria acervulina (grade) (Eimeria acervulina; Dose 10 ppm): 2; Efficacy against Eimeria acervulina (grade) (Eimeria acervulina; Dose 25 ppm): 0; oocyst in % of inf. control max. (Eimeria maxima; 5 ppm in feed): >100%; oocyst in % of inf. control max. (Eimeria maxima; 10 ppm in feed): 13%; oocyst in % of inf. control max. (Eimeria maxima; 25 ppm in feed): >100%; Efficacy against Eimeria maxima (grade) (Eimeria maxima; Dose 5 ppm): 0; Efficacy against Eimeria maxima (grade) (Eimeria maxima; Dose 10 ppm): 1; Efficacy against Eimeria maxima (grade) (Eimeria maxima; Dose 25 ppm): 0; oocyst in % of inf. control ten. (Eimeria tenella; 5 ppm in feed): >100%; oocyst in % of inf. control ten. (Eimeria tenella; 10 ppm in feed): 5%; oocyst in % of inf. control ten. (Eimeria tenella; 25 ppm in feed): >100%; Efficacy against Eimeria tenella (grade) (Eimeria tenella; Dose 5 ppm): 0; Efficacy against Eimeria tenella (grade) (Eimeria tenella; Dose 10 ppm): 1; Efficacy against Eimeria tenella (grade) (Eimeria tenella; Dose 25 ppm): 0
Cc1oc(=O)oc1Cn1c(C(F)(F)F)nc2c(C(F)(F)F)cc(C(F)(F)F)cc21 [Example 28] | 75 | 0 | 0/3 | 1 | 85 | 6 | 1 | 91 | 0 | 0/3 | 0 | 82 | 0 | 0 | 100 | 3/3 | 0 | 2 | 0 | 2 | Efficacy against Eimeria acervulina (grade) (Eimeria acervulina; Dose 10 ppm): 2; oocyst in % of inf. control max. (Eimeria maxima; 5 ppm in feed): 2%; oocyst in % of inf. control max. (Eimeria maxima; 10 ppm in feed): 0%; Efficacy against Eimeria maxima (grade) (Eimeria maxima; Dose 5 ppm): 2; Efficacy against Eimeria maxima (grade) (Eimeria maxima; Dose 10 ppm): 2; oocyst in % of inf. control ten. (Eimeria tenella; 5 ppm in feed): 0%; oocyst in % of inf. control ten. (Eimeria tenella; 10 ppm in feed): 0%; Efficacy against Eimeria tenella (grade) (Eimeria tenella; Dose 5 ppm): 2; Efficacy against Eimeria tenella (grade) (Eimeria tenella; Dose 10 ppm): 2
